“And” between values parts separate entries of the source, which are not always exact repeats. Equal values may be shown once.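 Cultured in 96-well plates, cells were exposed to test compound for 48 hours across five concentrations. The concentration for 50% growth inhibition is given as GI50. TGI marks complete inhibition of growth.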
Tests used:
Assay in all cases: NCI anticancer screen, dose series, 48 h
UACC-62 melanoma = system: UACC-62 melanoma
NCI-H460 lung = system: NCI-H460 lung
HT29 colon = system: HT29 colon
OVCAR-8 ovarian = system: OVCAR-8 ovarian
NCI-H522 lung = system: NCI-H522 lung
NCI-H226 lung = system: NCI-H226 lung
UACC-257 melanoma = system: UACC-257 melanoma
A549 NSCLC = system: A549 NSCLC
SR leukemia = system: SR leukemia
HS 578T breast = system: HS 578T breast

Compound	GI50 (UACC-62 melanoma) [µM]	TGI (UACC-62 melanoma)	GI50 (NCI-H460 lung) [µM]	TGI (NCI-H460 lung)	GI50 (HT29 colon) [µM]	TGI (HT29 colon)	GI50 (OVCAR-8 ovarian) [µM]	TGI (OVCAR-8 ovarian)	GI50 (NCI-H522 lung) [µM]	TGI (NCI-H522 lung)	TGI (NCI-H226 lung) [µM]	GI50 (UACC-257 melanoma) [µM]	TGI (UACC-257 melanoma)	GI50 (A549 NSCLC) [µM]	TGI (A549 NSCLC)	GI50 (NCI-H226 lung) [µM]	TGI (SR leukemia) [µM]	GI50 (HS 578T breast) [µM]	TGI (HS 578T breast) [µM]
C[C@@]12CCCc3coc(c31)C(=O)c1cc3c(cc12)C(=O)C=CC3=O	> 1	> 1 µM and 32.1 µM	> 1	> 1 µM and 41.3 µM	> 1	> 1 µM and 44.9 µM	> 1	> 1 µM and 29.1 µM	> 1	> 1 µM and 19.5 µM	> 1	> 1	> 1 µM and 29.9 µM	> 1	> 1 µM and 51.4 µM				
C=CCNC(=O)N(CCC)CCCCC(NC(C)=O)C(=O)NCc1ccccc1 (stereo not given)		> 100 µM		> 100 µM		> 100 µM		> 100 µM		> 100 µM	> 100		> 100 µM		> 100 µM				
C1C[OH+]CCNCC[OH+]CC[OH+]CCN1.[Cl-].[Pt+4]	> 100	> 100 µM	> 100	> 100 µM	> 100	> 100 µM	> 100	> 100 µM	> 100	> 100 µM	> 100	> 100	> 100 µM	> 100	> 100 µM	> 100			
COC(=O)OCC1OC(N2C(=O)NC(=O)C(Br)C2N=[N+]=[N-])CC1OC(=O)OC (stereo not given)		> 100 µM		> 100 µM		> 100 µM		> 100 µM		> 100 µM	> 100		> 100 µM		> 100 µM				
CCOC(=N)CC(=O)Nc1cccc(C)c1C		> 100 µM		> 100 µM		> 100 µM		> 100 µM		> 100 µM	> 100		> 100 µM		> 100 µM		> 100		
CN(CCCNC(=O)Cc1ccc2ccc3cccc4ccc1c2c34)CCCNc1cc(-c2ccc3ccccc3c2)nc2ccccc12	1.88	3.46 µM	1.65	3.61 µM	0.511	1.69 µM					3.83	1.8	3.56 µM	1.83	3.75 µM	1.83		1.66	3.59
CC1(C)O/C(=C\c2ccccc2)C(=O)/C(=C/c2ccccc2)O1		> 100 µM		> 100 µM		> 100 µM		> 100 µM		22.5 µM	96.3		71.7 µM		> 100 µM		75.3		
COC(=O)CCC(=O)CC1CC(=O)C2CCCN12 (stereo not given)		> 100 µM		> 100 µM		> 100 µM		> 100 µM		> 100 µM	> 100		> 100 µM		> 100 µM		> 100		
Nc1nc(CCl)nc(Nc2ccccc2)n1		34.6 µM		39.3 µM		27.9 µM		> 100 µM		3.27 µM	43.3		71.9 µM		79.4 µM		33.7		
COc1ccc(C2c3cc(OC)c(OC)cc3C(Cc3ccc([N+](=O)[O-])cc3)C2c2ccc([N+](=O)[O-])cc2)cc1OC (stereo not given)		> 100 µM		> 100 µM		> 100 µM		> 100 µM		> 100 µM	> 100		> 100 µM		> 100 µM				
O=S1OC2(c3ccccc3-c3ccccc32)c2ccccc21 (stereo not given)		> 100 µM		> 100 µM		> 100 µM		> 100 µM		> 100 µM	> 100		> 100 µM		> 100 µM		> 100		
CC(C)OC(=O)NNc1cc(Cl)ccc1Cl		> 100 µM		> 100 µM		> 100 µM		> 100 µM		> 100 µM			> 100 µM		> 100 µM				> 100
CN1NC(=Nc2ccccc2)Sc2c1cnn(-c1ccccc1)c2=O		> 100 µM		> 100 µM		> 100 µM		> 100 µM					> 100 µM		> 100 µM				
CN(C)C(=S)/N=c1\ss/c(=N\C(=S)N(C)C)n1-c1ccc(Cl)c(Cl)c1		> 100 µM		> 100 µM		> 100 µM		> 100 µM		> 100 µM	> 100		> 100 µM		> 100 µM		> 100		
C[n+]1cc(C(O)c2ccc3c(c2)OCO3)c2ccccc2c1 (stereo not given)		> 100 µM		> 100 µM		> 100 µM		> 100 µM		48.1 µM	> 100		66.5 µM		> 100 µM				
Cc1cc(C)c(C2[C@H]3C(=O)N(c4ccc(Cc5ccc(N6C(=O)[C@@H]7ON(c8ccccc8)C(c8c(C)cc(C)cc8C)[C@@H]7C6=O)cc5)cc4)C(=O)[C@H]3ON2c2ccccc2)c(C)c1 (stereo not given in full)		> 100 µM		> 100 µM		> 100 µM		> 100 µM		> 100 µM	> 100		> 100 µM		> 100 µM		> 100		
COC(=O)/C(C)=C/[N+](=O)[O-]		32.8 µM		54.8 µM		43.2 µM		63.3 µM					29.3 µM		44.1 µM				
Cc1ccc(S(=O)(=O)NCCNc2nccc(-c3c(-c4ccc(F)cc4)nc4sccn34)n2)cc1	3.95	> 100 µM	3.5	> 100 µM			5	53.8 µM	6.95	> 100 µM	97.3			3.44	> 100 µM	5.14		7.7	75.5
CN[C@@H](C)[C@H](NC)c1ccccc1		> 100 µM				> 100 µM		> 100 µM		> 100 µM	> 100		> 100 µM		> 100 µM				
O=C1c2ccc3c4ccccc4n(Cc4ccccc4)c3c2C(=O)N1c1ccccc1		31.7 µM		> 100 µM		39.2 µM		31.9 µM		6.93 µM	29.7		29.9 µM		34.9 µM		22.1		

Reference: PubChem BioAssay (NCI)
